From ChEMBL document CHEMBL3885881, “DrugMatrix”

Species on record: Rattus norvegicus
Assay: DrugMatrix - Regimen: Daily Repeat
Assay type: toxicity, organism-based, Sprague-Dawley
Design: regimen Daily Repeat, gender Male, age 6-8 weeks
Details: in vivo, po, route oral GAVAGE, […]; for ABSOLUTE BASOPHIL / ABSOLUTE EOSINOPHIL / ABSOLUTE LYMPHOCYTE / ABSOLUTE MONOCYTE / ABSOLUTE SEGMENTED NEUTROPHIL / BASOPHIL / EOSINOPHIL / ERYTHROCYTE COUNT / HEMATOCRIT / HEMOGLOBIN / LEUKOCYTE COUNT / LYMPHOCYTE / MEAN CORPUSCULAR HEMOGLOBIN / MEAN CORPUSCULAR HEMOGLOBIN CONCENTRATION / MEAN CORPUSCULAR VOLUME / MONOCYTE / NEUTROPHIL / NUCLEATED RED BLOOD CELLS / PLATELET COUNT: tissue Blood; for ALANINE AMINOTRANSFERASE / ALBUMIN / ALKALINE PHOSPHATASE / ASPARTATE AMINOTRANSFERASE / BLOOD UREA NITROGEN / CARBON DIOXIDE / CHLORIDE / CHOLESTEROL / CREATINE PHOSPHOKINASE / CREATININE / GLUCOSE / LACTATE DEHYDROGENASE / LIPASE / PHOSPHORUS / POTASSIUM / SODIUM / TOTAL BILIRUBIN / TOTAL PROTEIN / URIC ACID: tissue Plasma
[1] = 250 mg/kg, 72 h, dose level Low, time 3 day
[2] = 250 mg/kg, 120 h, dose level Low, time 5 day
[3] = 930 mg/kg, 72 h, dose level High, time 3 day
[4] = 930 mg/kg, 120 h, dose level High, time 5 day

Compound: CC12CCC(CC1)C(C)(C)O2 [EUCALYPTOL]
- ABSOLUTE BASOPHIL [1]: 0 CELLS/uL
- ABSOLUTE EOSINOPHIL [1]: 0 CELLS/uL
- ABSOLUTE LYMPHOCYTE [1]: 12865.33 CELLS/uL
- ABSOLUTE MONOCYTE [1]: 104 CELLS/uL
- ABSOLUTE SEGMENTED NEUTROPHIL [1]: 1797.33 CELLS/uL
- BASOPHIL [1]: 0%
- EOSINOPHIL [1]: 0%
- ERYTHROCYTE COUNT [1]: 5.22 x10E6/uL
- HEMATOCRIT [1]: 32.73%
- HEMOGLOBIN [1]: 12.97 G/DL
- LEUKOCYTE COUNT [1]: 14.77 x10E3/uL
- LYMPHOCYTE [1]: 87.33%
- MEAN CORPUSCULAR HEMOGLOBIN [1]: 24.83 pg
- MEAN CORPUSCULAR HEMOGLOBIN CONCENTRATION [1]: 39.63 G/DL
- MEAN CORPUSCULAR VOLUME [1]: 62.77 fL
- MONOCYTE [1]: 0.67%
- NEUTROPHIL [1]: 12%
- NUCLEATED RED BLOOD CELLS [1]: 0 /100WBC
- PLATELET COUNT [1]: 1143.67 x10E3/uL
- ALANINE AMINOTRANSFERASE [1]: 68.67 u/L
- ALBUMIN [1]: 4.03 G/DL
- ALKALINE PHOSPHATASE [1]: 413.33 u/L
- ASPARTATE AMINOTRANSFERASE [1]: 95.33 u/L
- BLOOD UREA NITROGEN [1]: 12.33 mg/dL
- CARBON DIOXIDE [1]: 24 mmol/L
- CHLORIDE [1]: 103.67 MEQ/L
- CHOLESTEROL [1]: 84.67 mg/dL
- CREATINE PHOSPHOKINASE [1]: 439.67 u/L
- CREATININE [1]: 0.17 mg/dL
- GLUCOSE [1]: 160.33 mg/dL
- LACTATE DEHYDROGENASE [1]: 154.67 u/L
- LIPASE [1]: 10.33 u/L
- PHOSPHORUS [1]: 12.5 mg/dL
- POTASSIUM [1]: 6.64 MEQ/L
- SODIUM [1]: 145.33 MEQ/L
- TOTAL BILIRUBIN [1]: 0.2 mg/dL
- TOTAL PROTEIN [1]: 5.53 G/DL
- URIC ACID [1]: 1.43 mg/dL
- ABSOLUTE BASOPHIL [2]: 0 CELLS/uL
- ABSOLUTE EOSINOPHIL [2]: 0 CELLS/uL
- ABSOLUTE LYMPHOCYTE [2]: 15020.67 CELLS/uL
- ABSOLUTE MONOCYTE [2]: 301.67 CELLS/uL
- ABSOLUTE SEGMENTED NEUTROPHIL [2]: 1277.67 CELLS/uL
- BASOPHIL [2]: 0%
- EOSINOPHIL [2]: 0%
- ERYTHROCYTE COUNT [2]: 5.46 x10E6/uL
- HEMATOCRIT [2]: 34.57%
- HEMOGLOBIN [2]: 14.17 G/DL
- LEUKOCYTE COUNT [2]: 16.6 x10E3/uL
- LYMPHOCYTE [2]: 90.33%
- MEAN CORPUSCULAR HEMOGLOBIN [2]: 25.97 pg
- MEAN CORPUSCULAR HEMOGLOBIN CONCENTRATION [2]: 40.97 G/DL
- MEAN CORPUSCULAR VOLUME [2]: 63.33 fL
- MONOCYTE [2]: 1.67%
- NEUTROPHIL [2]: 8%
- NUCLEATED RED BLOOD CELLS [2]: 0.67 /100WBC
- PLATELET COUNT [2]: 1304.67 x10E3/uL
- ALANINE AMINOTRANSFERASE [2]: 61 u/L
- ALBUMIN [2]: 4.2 G/DL
- ALKALINE PHOSPHATASE [2]: 377.33 u/L
- ASPARTATE AMINOTRANSFERASE [2]: 78.33 u/L
- BLOOD UREA NITROGEN [2]: 16 mg/dL
- CARBON DIOXIDE [2]: 24.33 mmol/L
- CHLORIDE [2]: 103 MEQ/L
- CHOLESTEROL [2]: 71 mg/dL
- CREATINE PHOSPHOKINASE [2]: 231.33 u/L
- CREATININE [2]: 0.17 mg/dL
- GLUCOSE [2]: 153.67 mg/dL
- LACTATE DEHYDROGENASE [2]: 170.67 u/L
- LIPASE [2]: 10 u/L
- PHOSPHORUS [2]: 12.6 mg/dL
- POTASSIUM [2]: 6.77 MEQ/L
- SODIUM [2]: 146.3 MEQ/L
- TOTAL BILIRUBIN [2]: 0.13 mg/dL
- TOTAL PROTEIN [2]: 5.97 G/DL
- URIC ACID [2]: 1.53 mg/dL
- ABSOLUTE BASOPHIL [3]: 0 CELLS/uL
- ABSOLUTE EOSINOPHIL [3]: 0 CELLS/uL
- ABSOLUTE LYMPHOCYTE [3]: 15782.67 CELLS/uL
- ABSOLUTE MONOCYTE [3]: 121.67 CELLS/uL
- ABSOLUTE SEGMENTED NEUTROPHIL [3]: 2129 CELLS/uL
- BASOPHIL [3]: 0%
- EOSINOPHIL [3]: 0%
- ERYTHROCYTE COUNT [3]: 5.63 x10E6/uL
- HEMATOCRIT [3]: 35.83%
- HEMOGLOBIN [3]: 14.2 G/DL
- LEUKOCYTE COUNT [3]: 18.03 x10E3/uL
- LYMPHOCYTE [3]: 87.67%
- MEAN CORPUSCULAR HEMOGLOBIN [3]: 25.3 pg
- MEAN CORPUSCULAR HEMOGLOBIN CONCENTRATION [3]: 39.67 G/DL
- MEAN CORPUSCULAR VOLUME [3]: 63.73 fL
- MONOCYTE [3]: 0.67%
- NEUTROPHIL [3]: 11.67%
- NUCLEATED RED BLOOD CELLS [3]: 0 /100WBC
- PLATELET COUNT [3]: 1268 x10E3/uL
- ALANINE AMINOTRANSFERASE [3]: 85.33 u/L
- ALBUMIN [3]: 4.33 G/DL
- ALKALINE PHOSPHATASE [3]: 424.33 u/L
- ASPARTATE AMINOTRANSFERASE [3]: 90.67 u/L
- BLOOD UREA NITROGEN [3]: 16.67 mg/dL
- CARBON DIOXIDE [3]: 23.33 mmol/L
- CHLORIDE [3]: 103 MEQ/L
- CHOLESTEROL [3]: 84.33 mg/dL
- CREATINE PHOSPHOKINASE [3]: 211.67 u/L
- CREATININE [3]: 0.24 mg/dL
- GLUCOSE [3]: 153.67 mg/dL
- LACTATE DEHYDROGENASE [3]: 86.67 u/L
- LIPASE [3]: 11.67 u/L
- PHOSPHORUS [3]: 12.2 mg/dL
- POTASSIUM [3]: 6.76 MEQ/L
- SODIUM [3]: 146.43 MEQ/L
- TOTAL BILIRUBIN [3]: 0.13 mg/dL
- TOTAL PROTEIN [3]: 6.03 G/DL
- URIC ACID [3]: 1.67 mg/dL
- ABSOLUTE BASOPHIL [4]: 0 CELLS/uL
- ABSOLUTE EOSINOPHIL [4]: 0 CELLS/uL
- ABSOLUTE LYMPHOCYTE [4]: 18083.67 CELLS/uL
- ABSOLUTE MONOCYTE [4]: 256.67 CELLS/uL
- ABSOLUTE SEGMENTED NEUTROPHIL [4]: 1226.33 CELLS/uL
- BASOPHIL [4]: 0%
- EOSINOPHIL [4]: 0%
- ERYTHROCYTE COUNT [4]: 5.66 x10E6/uL
- HEMATOCRIT [4]: 35.63%
- HEMOGLOBIN [4]: 14.2 G/DL
- LEUKOCYTE COUNT [4]: 19.57 x10E3/uL
- LYMPHOCYTE [4]: 92.33%
- MEAN CORPUSCULAR HEMOGLOBIN [4]: 25.1 pg
- MEAN CORPUSCULAR HEMOGLOBIN CONCENTRATION [4]: 39.87 G/DL
- MEAN CORPUSCULAR VOLUME [4]: 62.97 fL
- MONOCYTE [4]: 1.33%
- NEUTROPHIL [4]: 6.33%
- NUCLEATED RED BLOOD CELLS [4]: 0 /100WBC
- PLATELET COUNT [4]: 1326.67 x10E3/uL
- ALANINE AMINOTRANSFERASE [4]: 58 u/L
- ALBUMIN [4]: 4.17 G/DL
- ALKALINE PHOSPHATASE [4]: 302.33 u/L
- ASPARTATE AMINOTRANSFERASE [4]: 76.33 u/L
- BLOOD UREA NITROGEN [4]: 14 mg/dL
- CARBON DIOXIDE [4]: 26.33 mmol/L
- CHLORIDE [4]: 101.67 MEQ/L
- CHOLESTEROL [4]: 73 mg/dL
- CREATINE PHOSPHOKINASE [4]: 275 u/L
- CREATININE [4]: 0.22 mg/dL
- GLUCOSE [4]: 158 mg/dL
- LACTATE DEHYDROGENASE [4]: 114.33 u/L
- LIPASE [4]: 11 u/L
- PHOSPHORUS [4]: 11.8 mg/dL
- POTASSIUM [4]: 6.84 MEQ/L
- SODIUM [4]: 145.5 MEQ/L
- TOTAL BILIRUBIN [4]: 0.23 mg/dL
- TOTAL PROTEIN [4]: 5.97 G/DL
- URIC ACID [4]: 1.8 mg/dL
